Measured values: ChEMBL document CHEMBL3352551, “Synthesis and biological evaluation of novel allosteric enhancers of the A1 adenosine receptor based on 2-amino-3-(4'-chlorobenzoyl)-4-substituted-5-arylethynyl thiophene” (J Med Chem, 2014)

Columns and labels:
[1] = molecular target: T1, Adenosine receptor A1 (Homo sapiens) (UniProt P30542); assay: Allosteric enhancer activity at human adenosine A1 receptor expressed in CHO cells assessed as inhibition of forskolin-induced cAMP production at 10 uM; assay type: functional, cell-based
T1 sequence (whole entry): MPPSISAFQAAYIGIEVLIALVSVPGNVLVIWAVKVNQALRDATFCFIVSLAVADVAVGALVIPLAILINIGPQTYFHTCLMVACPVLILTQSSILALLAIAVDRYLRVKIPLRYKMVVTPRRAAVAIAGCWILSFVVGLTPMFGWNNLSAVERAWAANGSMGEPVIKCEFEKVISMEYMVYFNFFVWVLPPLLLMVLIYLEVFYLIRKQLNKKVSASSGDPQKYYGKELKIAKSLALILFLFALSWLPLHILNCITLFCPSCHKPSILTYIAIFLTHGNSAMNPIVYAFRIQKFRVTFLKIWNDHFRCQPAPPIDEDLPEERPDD

[2] = molecular target: T1, Adenosine receptor A1 (Homo sapiens); assay: Allosteric enhancer activity at human adenosine A1 receptor expressed in CHO cells assessed as inhibition of forskolin-induced cAMP production at 100 nM in presence of 1 pM CCPA; assay type: functional, cell-based
[3] = molecular target: T1, Adenosine receptor A1 (Homo sapiens); assay: Displacement of [3H]DPCPX from human adenosine A1 receptor expressed in CHO cell membranes at 10 uM
[4] = molecular target: Adenosine receptor A2a (Homo sapiens) (UniProt P29274); assay: Displacement of [3H]ZM241385 from human adenosine A2A receptor expressed in CHO cell membranes at 10 uM
Sequence of Adenosine receptor A2a (Homo sapiens) (P29274 whole entry): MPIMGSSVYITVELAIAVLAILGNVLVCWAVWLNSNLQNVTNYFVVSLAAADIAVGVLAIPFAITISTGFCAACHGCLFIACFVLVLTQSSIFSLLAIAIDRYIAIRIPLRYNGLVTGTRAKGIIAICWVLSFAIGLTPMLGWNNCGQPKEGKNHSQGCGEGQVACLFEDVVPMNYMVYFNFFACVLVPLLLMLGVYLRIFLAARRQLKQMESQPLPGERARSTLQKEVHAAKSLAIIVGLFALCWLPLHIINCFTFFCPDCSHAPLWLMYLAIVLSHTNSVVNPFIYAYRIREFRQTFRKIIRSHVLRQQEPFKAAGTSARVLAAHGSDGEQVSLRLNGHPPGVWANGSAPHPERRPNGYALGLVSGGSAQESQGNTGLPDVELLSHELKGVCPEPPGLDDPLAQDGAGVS

[5] = molecular target: T2, Adenosine receptor A3 (Homo sapiens) (UniProt P0DMS8); assay: Displacement of [3H]MRE-3008-F20 from human adenosine 3 receptor expressed in CHO cell membranes at 10 uM
T2 sequence (whole entry): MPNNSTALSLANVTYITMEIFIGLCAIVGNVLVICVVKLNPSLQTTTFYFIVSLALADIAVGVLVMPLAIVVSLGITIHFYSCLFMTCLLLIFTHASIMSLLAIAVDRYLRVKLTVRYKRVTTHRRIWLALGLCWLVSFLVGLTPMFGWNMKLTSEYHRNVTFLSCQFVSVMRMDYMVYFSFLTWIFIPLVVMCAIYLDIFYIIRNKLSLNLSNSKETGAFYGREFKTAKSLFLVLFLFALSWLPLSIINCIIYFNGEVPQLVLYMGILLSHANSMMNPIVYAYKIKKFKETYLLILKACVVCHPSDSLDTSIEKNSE

[6] = molecular target: T1, Adenosine receptor A1 (Homo sapiens); assay: Allosteric enhancer activity at human adenosine A1 receptor expressed in CHO cell membranes assessed as shift in [3H]CCPA Bmax level at 10 uM by saturation binding assay
[7] = molecular target: T1, Adenosine receptor A1 (Homo sapiens); assay: Allosteric enhancer activity at human adenosine A1 receptor expressed in CHO cell membranes assessed as shift in CCPA binding Ki level at 10 uM by [3H]DPCPX competition binding assay

Compound | inhibition [1] [%] | inhibition [2] [%] | inhibition [3] [%] | inhibition [4] [%] | inhibition [5] [%] | fold change (FC) [6] | fold change (FC) [7]
CCCCCc1ccc(C#Cc2sc(N)c(C(=O)c3ccc(Cl)cc3)c2CC(C)(C)C)cc1 | 60 | 62 | < 15 | < 15 | < 15 | 5.5 | 3.7
Nc1sc(-c2ccccc2)c(CN2CCN(c3ccccc3)CC2)c1C(=O)c1ccc(Cl)cc1 | – | – | – | – | – | 11.5 | 8.3
Cc1c(C#Cc2ccccc2)sc(N)c1C(=O)c1ccc(Cl)cc1 | 27 | 34 | < 15 | < 15 | < 15 | 2.5 | 1.5
COc1ccc(-c2sc(N)c(C(=O)c3ccc(Cl)cc3)c2CC(C)(C)C)cc1 | – | – | – | – | – | 6.1 | 4.3
Cc1ccc(CCc2sc(N)c(C(=O)c3ccc(Cl)cc3)c2CC(C)(C)C)cc1 | 43 | 45 | < 15 | < 15 | < 15 | 5 | 3.8
CC(C)(C)Cc1c(-c2ccccc2)sc(N)c1C(=O)c1ccc(Cl)cc1 | – | – | – | – | – | 6.9 | 4.8
Nc1sc(CCc2ccccc2)c(-c2ccccc2)c1C(=O)c1ccc(Cl)cc1 | 25 | 24 | < 15 | < 15 | < 15 | 2.2 | 1.6
Nc1sc(C#Cc2ccccc2)c(CN(C2CCCCC2)C2CCCCC2)c1C(=O)c1ccc(Cl)cc1 | 10 | 19 | < 15 | < 15 | < 15 | 1.2 | 3.7
COc1ccc(C#Cc2sc(N)c(C(=O)c3ccc(Cl)cc3)c2CC(C)(C)C)cc1OC | 72 | 74 | < 15 | < 15 | < 15 | 7.1 | 6.8
Nc1sc(C#Cc2ccccc2)c(CN2CCN(c3ccc(Cl)c(C(F)(F)F)c3)CC2)c1C(=O)c1ccc(Cl)cc1 | 30 | 36 | < 15 | < 15 | < 15 | 2.7 | 2.4
Cc1ccc(C#Cc2sc(N)c(C(=O)c3ccc(Cl)cc3)c2C)cc1 | 31 | 36 | < 15 | < 15 | < 15 | 2.3 | 1.7
Nc1sc(C#Cc2ccccc2)c(CN2CCN(c3ccc(C(F)(F)F)cc3)CC2)c1C(=O)c1ccc(Cl)cc1 | 31 | 33 | < 15 | < 15 | < 15 | 2.9 | 3
Nc1sc(C#Cc2ccccc2)c(CN2CCN(c3ccc(Cl)cc3)CC2)c1C(=O)c1ccc(Cl)cc1 | 35 | 35 | < 15 | < 15 | < 15 | 3.4 | 3.6
Cc1ccc(C#Cc2sc(N)c(C(=O)c3ccc(Cl)cc3)c2CC(C)(C)C)cc1 | 70 | 73 | < 15 | < 15 | < 15 | 7.2 | 7.5
CC(C)(C)Cc1c(C#CC2CCCCC2)sc(N)c1C(=O)c1ccc(Cl)cc1 | 67 | 71 | < 15 | < 15 | < 15 | 8 | 4.8
CC(C)(C)Cc1c(C#Cc2ccsc2)sc(N)c1C(=O)c1ccc(Cl)cc1 | 60 | 63 | < 15 | < 15 | < 15 | 5.7 | 3.9

The next lines start with the values.

inhibition [1] [%] | inhibition [2] [%] | inhibition [3] [%] | inhibition [4] [%] | inhibition [5] [%] | fold change (FC) [6] | fold change (FC) [7] | Compound
– | – | – | – | – | 3.5 | 3.2 | Nc1sc(-c2ccccc2)c(CN(C2CCCCC2)C2CCCCC2)c1C(=O)c1ccc(Cl)cc1
20 | 25 | < 15 | < 15 | < 15 | 2 | 1.5 | Nc1sc(C#Cc2ccccc2)cc1C(=O)c1ccc(Cl)cc1
40 | 41 | < 15 | < 15 | < 15 | 3.3 | 3.5 | CC(C)(C)Cc1c(CCc2ccccc2)sc(N)c1C(=O)c1ccc(Cl)cc1
29 | 31 | < 15 | < 15 | < 15 | 2.8 | 2.8 | Nc1sc(C#Cc2ccccc2)c(CN2CCN(c3ccccc3)CC2)c1C(=O)c1ccc(Cl)cc1
68 | 67 | < 15 | < 15 | < 15 | 7 | 7.5 | Cc1cc(C)c(C#Cc2sc(N)c(C(=O)c3ccc(Cl)cc3)c2CC(C)(C)C)cc1C
37 | 38 | < 15 | < 15 | < 15 | 3.9 | 3.9 | Nc1sc(C#Cc2ccccc2)c(CN2CCN(c3ccc(F)cc3)CC2)c1C(=O)c1ccc(Cl)cc1
– | – | – | – | – | 6.4 | 6 | Cc1ccc(-c2sc(N)c(C(=O)c3ccc(Cl)cc3)c2CC(C)(C)C)cc1
22 | 24 | < 15 | < 15 | < 15 | 2.1 | 1.7 | Nc1sc(C#Cc2ccccc2)c(CN2CCN(c3ccc(Cl)c(Cl)c3)CC2)c1C(=O)c1ccc(Cl)cc1
28 | 27 | < 15 | < 15 | < 15 | 2.2 | 1.6 | Cc1c(CCc2ccccc2)sc(N)c1C(=O)c1ccc(Cl)cc1
62 | 66 | < 15 | < 15 | < 15 | 6.2 | 4 | Cc1ccc(C)c(C#Cc2sc(N)c(C(=O)c3ccc(Cl)cc3)c2CC(C)(C)C)c1
68 | 71 | < 15 | < 15 | < 15 | 7.5 | 7.1 | Cc1cccc(C#Cc2sc(N)c(C(=O)c3ccc(Cl)cc3)c2CC(C)(C)C)c1
22 | 20 | < 15 | < 15 | < 15 | 1.7 | 1.3 | Nc1sc(CCc2ccccc2)cc1C(=O)c1ccc(Cl)cc1
24 | 25 | < 15 | < 15 | < 15 | 1.9 | 1.5 | Nc1sc(C#Cc2ccccc2)c(-c2ccccc2)c1C(=O)c1ccc(Cl)cc1
